Structures can show the parent of a compound that is named as a salt.
Assays:
[1] = Pharmacokinetic evaluation: concentration of compound 1 in plasma after single administration to SD male rats; type: in vivo; details: for BA / AUC(0-inf) / Cmax / Tmax / half-life: 5 mg/kg as compound 1, single, SD male rats; for AUC(0-inf) / Cmax / Tmax / half-life: rat, plasma
Experimental: (§1) Quantitative determination of the concentration of the compound 1 in the following Test Examples and Reference Examples was performed using ultra-high performance liquid chromatography with a single quadrupole mass spectrometer as a detector.
To evaluate the sustained-release ability of fine particle B, the concentration of the compound 1 in blood was measured over time after subcutaneous administration of the fine particle B or the compound 1 bulk powder to rats or after oral administration of the compound 1 bulk powder to rats. The fine particle B was suspended in physiological saline and the compound 1 bulk powder was dissolved in physiological saline, and then 5 mg/kg each as an amount of the compound 1 was singly administered to SD male rats. After administration, blood was collected over time from the tail vein, and the blood was transferred into a micro test tube treated with heparin, and immediately cooled in ice. After cooling in ice, the blood was immediately centrifuged at 4° C. and 10,000 g for 10 minutes. The concentration of the compound 1 in plasma thus obtained was quantitatively determined using ultra-high performance liquid chromatography with a single quadrupole mass spectrometer as a detector.
Cmax, Tmax, T1/2, AUC0-∞ and BA represent maximum blood concentration (concentration at the peak of blood concentration curve), time to reach maximum blood concentration (time to reach the peak of blood concentration curve), half-life of the concentration of drug in blood, area under curve from initiation of administration to drug elimination and bioavailability, respectively.
To evaluate the sustained-release ability of fine particle F, the concentration of the compound 1 in blood was measured over time after subcutaneous administration of the fine particle F prepared in Test Example 2-1 or the compound 1 bulk powder to rats. The method was same as in Test Example 1-3. Specifically, the fine particle F was suspended in physiological saline and the compound 1 bulk powder was dissolved in physiological saline, and then 5 mg/kg each as an amount of the compound 1 was singly subcutaneously administered to SD male rats. After subcutaneous administration, blood was collected over time from the tail vein, and the blood was transferred into a micro test tube treated with heparin, and immediately cooled in ice. After cooling in ice, the blood was immediately centrifuged at 4° C. and 10,000 g for 10 minutes. The concentration of the compound 1 in plasma thus obtained was quantitatively determined using ultra-high performance liquid chromatography with a single quadrupole mass spectrometer as a detector.
To evaluate the sustained-release ability of the hydrogel a prepared in Reference Example 3-1, the concentration of the compound 1 in blood was measured over time after subcutaneous administration of the hydrogel a or the compound 1 bulk powder to rats. Specifically, the hydrogel a or the compound 1 bulk powder at a dose of 5 mg/kg as an amount of the compound 1 was singly subcutaneously administered to SD male rats. After subcutaneous administration, blood was collected over time from the tail vein, and the blood was transferred into a micro test tube treated with heparin, and immediately cooled in ice. After cooling in ice, the blood was immediately centrifuged at 4° C. and 10,000 g for 10 minutes. The concentration of the compound 1 in plasma thus obtained was quantitatively determined using ultra-high performance liquid chromatography with a single quadrupole mass spectrometer as a detector. […]

[2] = Evaluation test of elution in phosphate-buffered saline (pH 7.4), elution rate of compound 1 by UPLC-MS; type: physicochemical; details: phosphate-buffered saline pH 7.4, 37°C, shaking 60 strokes/min
Experimental: as §1
An evaluation test of the elution of the fine particle a prepared in Reference Example 1-1 was performed in the same manner as in Test Example 1 mentioned later. Specifically, the fine particle a (10 mg) was added to phosphate-buffered saline (pH 7.4, 30 mL), and using a shaker, the mixture was horizontally shaken at 37° C. for 24 hours at a shaking speed of 60 strokes/min and with a shaking width of 2.0 cm/stroke to evaluate “elution”. Quantitative determination of the concentration of the compound 1 was performed using ultra-high performance liquid chromatography with a single quadrupole mass spectrometer as a detector to calculate an elution rate. The test results of the fine particle a are shown in Table 1 below together with the test results of the compound 1 bulk powder obtained in Test Example 1 mentioned later.
Using the fine particles A, B, C, D and E prepared in Test Example 1-1 and the compound 1 bulk powder, an evaluation test of each elution was performed. Each of the fine particles A, B, C, D and E and the compound 1 bulk powder (10 mg) was added to phosphate-buffered saline (pH 7.4, 30 mL), and using a shaker, the mixtures were horizontally shaken at 37° C. for 24 hours at a shaking speed of 60 strokes/min and with a shaking width of 2.0 cm/stroke to evaluate “elution”. Quantitative determination of the concentration of the compound 1 was performed using ultra-high performance liquid chromatography with a single quadrupole mass spectrometer as a detector to calculate an elution rate.
Using the fine particle F prepared in Test Example 2-1 and the compound 1 bulk powder, an evaluation test of each elution was performed in the same manner as in Test Example 1. Each of the fine particle F and the compound 1 bulk powder (10 mg) was added to phosphate-buffered saline (pH 7.4, 30 mL), and using a shaker, the mixtures were horizontally shaken at 37° C. for 72 hours at a shaking speed of 60 strokes/min and with a shaking width of 2.0 cm/stroke to evaluate “elution”.

[3] = sc, subcutaneous administration
[4] = subcutaneous administration, 5 mg/kg as compound 1, SD male rats

BA ([1]; oral administration): 41%
AUC(0-inf) [1, 3]: 8550 ± 600 ng·h/mL
Cmax [1, 3]: 9600 ± 700 ng/mL
Tmax [1, 3]: 15 min
half-life [1, 3]: 21.6 min
AUC(0-inf) ([1]; oral administration): 5160 ± 200 ng·h/mL
Cmax ([1]; oral administration): 3100 ± 500 ng/mL
Tmax ([1]; oral administration): 15 min
half-life ([1]; oral administration): 68.4 ± 12 min
Concentration of compound 1 in plasma at 12 hours after administration [1, 4]: below the detection limit
Concentration of compound 1 in plasma at 24 hours after administration [1, 4]: below the detection limit
BA ([1]; subcutaneous administration): 67%
Elution rate ([2]; Time 0 h): 0%
Elution rate ([2]; Time 0.5 h): 83.73 ± 4.31%
Elution rate ([2]; Time 1 h): 93.59 ± 1.63%
Elution rate ([2]; Time 3 h): 94.77 ± 2.26%
Elution rate ([2]; Time 6 h): 92.00 ± 2.45%
Elution rate ([2]; Time 12 h): 91.63 ± 1.84%
Elution rate ([2]; Time 24 h): 97.10 ± 1.96%
Elution rate ([2]; Time 48 h): 91.10 ± 3.80%
Elution rate ([2]; Time 72 h): 93.29 ± 1.36%
Compound: CCS(=O)(=O)Nc1ncc(C(F)(F)F)cc1NC(=O)C1CCCCC1 [Compound 1 bulk powder, N-(2-ethylsulfonylamino-5-trifluoromethyl-3-pyridyl)cyclohexanecarboxamide-monosodium salt-monohydrate]

Source: patent publication US20200289481A1, “SUSTAINED-RELEASE PHARMACEUTICAL COMPOSITION” (ISHIHARA SANGYO KAISHA, LTD., priority 2017, published 2020)
